Residue numbers refer to the chain shown, from its start. Read-outs that look alike come from different tables or passages of the source.
What was measured:
[1] = biological target: T1, BaF3-FLT3-ITD-F691L (Homo sapiens, UniProt P36888, INS600HVDFREYEYD/F691L, cells depend on it); experiment: CTB viability assay CS0047, BaF3-FLT3-ITD-F691L; type: cell-based, murine; details: CellTiter Blue viability, 72 hours
T1 sequence (P36888 with tags, fused parts or gaps INS600HVDFREYEYD/F691L): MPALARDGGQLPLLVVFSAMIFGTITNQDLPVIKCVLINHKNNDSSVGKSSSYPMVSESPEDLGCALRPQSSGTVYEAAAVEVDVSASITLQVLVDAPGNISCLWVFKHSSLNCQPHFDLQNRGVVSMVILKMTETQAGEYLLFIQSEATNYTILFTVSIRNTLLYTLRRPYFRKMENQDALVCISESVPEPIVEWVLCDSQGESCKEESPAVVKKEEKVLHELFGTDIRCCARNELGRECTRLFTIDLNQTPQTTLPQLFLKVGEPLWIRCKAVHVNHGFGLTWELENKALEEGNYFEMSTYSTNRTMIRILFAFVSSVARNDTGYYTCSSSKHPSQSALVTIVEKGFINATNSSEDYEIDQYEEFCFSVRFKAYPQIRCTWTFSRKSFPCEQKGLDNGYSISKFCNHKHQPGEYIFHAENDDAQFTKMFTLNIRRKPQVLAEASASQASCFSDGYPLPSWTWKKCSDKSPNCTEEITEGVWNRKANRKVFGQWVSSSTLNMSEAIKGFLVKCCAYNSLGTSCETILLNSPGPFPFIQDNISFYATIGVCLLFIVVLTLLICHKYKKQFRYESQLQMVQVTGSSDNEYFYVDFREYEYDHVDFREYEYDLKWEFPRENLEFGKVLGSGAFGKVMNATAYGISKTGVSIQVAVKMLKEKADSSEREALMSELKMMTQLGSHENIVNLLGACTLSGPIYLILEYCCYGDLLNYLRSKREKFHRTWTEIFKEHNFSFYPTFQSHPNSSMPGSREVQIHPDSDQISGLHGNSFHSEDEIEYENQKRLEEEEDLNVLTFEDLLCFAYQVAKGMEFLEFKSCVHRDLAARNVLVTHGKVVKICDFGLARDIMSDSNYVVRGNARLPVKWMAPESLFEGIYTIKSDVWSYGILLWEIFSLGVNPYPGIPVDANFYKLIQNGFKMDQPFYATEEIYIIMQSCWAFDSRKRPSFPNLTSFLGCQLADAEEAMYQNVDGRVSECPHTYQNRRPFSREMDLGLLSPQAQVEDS
From the text: Gene constructs containing the human FLT3 sequences FLT3-ITD, FLT3-ITD-F691L, FLT3-ITD-D835V and FLT3-D835V were synthesized by reverse translation of the human protein sequences, with codons optimized for mammalian expression. Sequence of the internal tandem duplication (ITD) was based on the MV4-11 ITD sequence. Synthetic DNA constructs were cloned into the pMSCV puro retroviral vector (Clontech) and transfected into the EcoPack2-293 packaging cell line (Clontech) to generate retroviruses that contain the different FLT3 constructs. Viruses were transduced into the IL-3-dependent, murine […] cell line, Ba/F3, and selected for puromycin resistance and IL-3 independence. All cell lines were cloned by limiting dilution and clones were used for all subsequent cell assays. Overexpression of the FLT3 mutants in the Ba/F3 cells results in constitutive phosphorylation of the exogenous FLT3 protein, which is required for IL-3 independence.
Cell lines were serum starved overnight in media containing 0.5% FBS, plated at 15,000 cells/well in 96-well white-walled tissue culture plates, and 3-fold serial dilutions of test compounds of Formula I were added for 72 hours at 37° C. CellTiter Blue (CTB, Promega) was added and incubated for an additional 3 hours at 37° C. Fluorescence was read at 560 nm excitation, 590 nm emission. Wells with CTB+media only were used for background subtraction, and the fluorescence of compound-treated cells was normalized to the fluorescence of DMSO-treated cells. IC50s were determined using Igor Pro software. All compounds are assayed in duplicate cell plates.

[2] = biological target: T2, BaF3-FLT3-ITD-D835V (Homo sapiens, UniProt P36888, INS600HVDFREYEYD/D835V, cells depend on it); experiment: CTB viability assay CS0048, BaF3-FLT3-ITD-D835V; type: cell-based, murine; details: CellTiter Blue viability, 72 hours
T2 sequence (P36888 with tags, fused parts or gaps INS600HVDFREYEYD/D835V): T1 sequence (P36888 with tags, fused parts or gaps INS600HVDFREYEYD/F691L) with L701F, D845V
Procedure, shortened: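 Murine Ba/F3 cells made IL-3-independent by retroviral human FLT3-ITD (MV4-11 ITD), ±F691L or D835V, serum-starved overnight in 0.5% FBS. 3-fold compound dilutions applied 72 h at 37° C; viability by CellTiter Blue fluorescence (ex 560/em 590 nm), normalized to DMSO, IC50 from duplicate plates.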

[3] = Table 4, compounds from WO 2011/022473, read-out: Cell Assay: CS0047: BaF3-FLT3-ITD-F691L CTB: IC50
[4] = Table 4, compounds from WO 2011/022473, read-out: Cell Assay: CS0048: BaF3-FLT3-ITD-D835V CTB: IC50
[5] = Table 3, read-out: Cell Assay: CS0047: BaF3-FLT3-ITD-F691L CTB: IC50
[6] = Table 3, read-out: Cell Assay: CS0048: BaF3-FLT3-ITD-D835V CTB: IC50
[7] = BaF3-FLT3-ITD-F691L cells, read-out: Cell Assay: CS0047:BaF3-FLT3-ITD-F691L CTB:IC50
[8] = BaF3-FLT3-ITD-D835V cells, read-out: Cell Assay: CS0048: BaF3-FLT3-ITD-D835V CTB:IC50

Compound	GI50 [1, 3]	GI50 [2, 4]	also measured
CNc1ccc(-c2ccc(CC(=O)Nc3cc(C(C)(C)C)on3)cc2)cn1 [reference compound]	43.2 nM	92 nM	
O=C(Cc1ccc(-c2cnc(Nc3ccccc3)nc2)cc1F)Nc1cc(C2(C(F)(F)F)CC2)on1			GI50 [1, 5]: 0.728 nM; GI50 [2, 6]: 0.772 nM
Cc1nn(C)c(C)c1Nc1ncc(-c2ccc(CC(=O)Nc3cc(C4(C(F)(F)F)CC4)on3)c(F)c2)cn1 [P-029, 2-[2-fluoro-4-[2-[(l,3,5-trimethylpyrazol-4-yl)amino]pyrimidin-5-yl]phenyl]-N-[5-[1-(trifluoromethyl)cyclopropyl]isoxazol-3-yl]acetamide]			GI50 [1, 7]: 10 to 50 nM; GI50 [2, 8]: 10 to 50 nM
CCNc1ccc(-c2ccc(CC(=O)Nc3cc(C(C)(C)C)on3)cc2)cn1 [reference compound]	45.4 nM	94.2 nM	
CC(C)(c1cc(NC(=O)Cc2ccc(-c3ccc(NCCN4CCOCC4)nc3)cc2)no1)C(F)(F)F [reference compound]	73.9 nM	145 nM	
O=C(O)Cn1cc(Nc2ncc(-c3ccc(CC(=O)Nc4cc(C5(C(F)(F)F)CC5)on4)c(F)c3)cn2)cn1 [P-078, 2-[4-[[5-[3-fluoro-4-[2-oxo-2-[[5-[1-(trifluoromethyl)cyclopropyl]isoxazol-3-yl]amino]ethyl]phenyl]pyrimidin-2-yl]amino]pyrazol-1-yl]acetic acid]			GI50 [1, 7]: 10 to 50 nM; GI50 [2, 8]: 50 to 100 nM
CC(C)(C)c1cc(NC(=O)Nc2ccc(-c3cnc(NC4CC4)nc3)cn2)no1 [reference compound]	77.8 nM	585 nM	
Cn1cc(Nc2ncc(-c3ccc(CC(=O)Nc4cc(C5(C(F)(F)F)CC5)on4)c(F)c3)cn2)cn1			GI50 [1, 5]: 0.189 nM; GI50 [2, 6]: 0.259 nM
CC(C)(C)c1cc(NC(=O)Nc2ccc(-c3cnc(NC4CCOCC4)nc3)cn2)no1 [reference compound]	110 nM	673 nM	
